Assay results: patent publication US20200179319A1, “PHARMACEUTICAL FORMULATIONS AND THEIR USE” (Signum Biosciences, Inc., priority 2016, published 2020)

Key:
Assay type in all cases: physicochemical
[1] = Stability Study 2 conducted at 5° C.: storage stability of a formulation comprising the disodium salt, HPLC; conditions: for weight percentage of the component, 1 months: 1 month at 5° C.; for weight percentage of the component, 2 months: 2 months at 5° C.; for weight percentage of the component, 3 months: 3 months at 5° C.; for weight percentage of the component, 6 months: 6 months at 5° C.; for weight percentage of the component, 9 months: 9 months at 5° C.; for weight percentage of the component, 12 months: 12 months at 5° C.; for weight percentage of the component, 18 months: 18 months at 5° C.; for weight percentage of the component, 24 months: 24 months at 5° C.; for weight percentage of the component, Initial: storage at 5° C.
Procedure: The stability of a formulation comprising the disodium salt of 4-(((R)-1-carboxy-2-(((2E,6E)-3,7,11-trimethyldodeca-2,6,10-trien-1-yl)thio)ethyl)amino)-4-oxobutanoic acid was determined after storage at 5° C. for a period of 1 month, 2 months, 3 months, 6 months, 9 months, 12 months, 18 months, and 24 months. In each case, the percentage of 4-(((R)-1-carboxy-2-(((2E,6E)-3,7,11-trimethyldodeca-2,6,10-trien-1-yl)thio)ethyl)amino)-4-oxobutanoic acid remaining at each time point was determined by use of HPLC. Each of the percentages in the table below are expressed at the weight percentage of the component as compared to the total weight of the composition.

[2] = Stability Study 1: storage stability of a formulation comprising the disodium salt, HPLC; conditions: 25° C., heading 30° C.; for % weight in formulation after 1 month: after 1 month storage; for % weight in formulation after 3 months: after 3 months storage; for % weight in formulation after 6 months: after 6 months storage; for % weight in formulation after 9 months: after 9 months storage; for Initial (% weight of formulation): formulation comprising the disodium salt
Procedure: The stability of a formulation comprising the disodium salt of […] In each case, the percentage of 4-(((R)-1-carboxy-2-(((2E,6E)-3,7,11-trimethyldodeca-2,6,10-trien-1-yl)thio)ethyl)amino)-4-oxobutanoic acid remaining at each time point was determined by use of HPLC.

[3] = Screening Study (Example 5): sulfoxide formed in API solution with each agent, HPLC; conditions: for (% area sulfoxide for each agent/% area sulfoxide in Blank) / Average % area sulfoxide for 3 runs per agent: 24 hours exposed to air at room temperature, not protected from light; for % area sulfoxide relative to % area Control: Control: no agent, stored at 5° C. and protected from light; for Average % area sulfoxide for 3 runs per agent: pH 7.4 to 7.5 buffer, API disodium salt solution plus agent
Procedure: A buffer solution was prepared by adding 0.72 g of Na2HPO4, 0.24 g KH2PO4 and 500 mL of deionized water into a container and mixing. The pH of the mixture was adjusted to 7.4 to 7.5 using NaOH and H3PO4.
(§1) A solution of each agent in the table below was prepared by adding 500 mg or each agent into a 25 mL volumetric flask and filling the flask to volume by the addition of the prepared buffer solution.
A 6% solution of API was prepared by adding 3.0 g the disodium salt of 4-(((R)-1-carboxy-2-(((2E,6E)-3,7,11-trimethyldodeca-2,6,10-trien-1-yl)thio)ethyl)amino)-4-oxobutanoic acid to a 50 mL volumetric flask filling the flask to volume by the addition of argon-sparged methanol, followed by mixing.
(§2) A screen was performed for each agent as follows: (1) 2.5 mL of the stock solution of API and 2.5 mL of each agent was added into scintillation vial, the vial was capped and the contents were mixed (repeated three times for each agent); and (2) allowing each resulting mixture to sit for 24 hours exposed to air at room temperature and not protected from light. A blank solution was prepared (3×) by adding buffer solution into the 100 mL volumetric flask in place of the agent and was stored under the same conditions as the other samples, 24 hours exposed to air at room temperature and not protected from light. After 24 hours, the contents of each vial were transferred to a 100 mL volumetric flask and each volumetric flask was filled to volume by the addition of methanol, and an aliquot of each mixture was removed and analyzed by HPLC.
(§3) The area of the sulfoxide of 4-(((R)-1-carboxy-2-(((2E,6E)-3,7,11-trimethyldodeca-2,6,10-trien-1-yl)thio)ethyl)amino)-4-oxobutanoic acid produced in each solution was calculated as follows: % area sulfoxide=Rsulfoxide/(Rparent+Rsulfoxide), wherein Rsuffoxide=the area under the response of the sulfoxide in the HPLC trace, and Rparent=the area under the response of 4-(((R)-1-carboxy-2-(((2E,6E)-3,7,11-trimethyldodeca-2,6,10-trien-1-yl)thio)ethyl)amino)-4-oxobutanoic acid in the HPLC trace. The control sample in Table 8 contained no agent, was stored at 5° C. and protected from light.

[4] = Screening Study (Example 3): sulfoxide formed in API solution with each agent, HPLC; conditions: 24 hours exposed to air at room temperature, not protected from light; for Average % area sulfoxide for 3 runs per agent: API disodium salt solution plus agent
Procedure: A buffer solution was prepared by adding 0.72 g of Na2HPO4, 0.24 g KH2PO4 and 500 mL of deionized water into a container and mixing.
as §1
A 6% solution of API was prepared by adding 3.0 g the disodium salt of 4-(((R)-1-carboxy-2-(((2E,6E)-3,7,11-trimethyldodeca-2,6,10-trien-1-yl)thio)ethyl)amino)-4-oxobutanoic acid to a 50 mL volumetric flask and filling the flask to volume by the addition of methanol, followed by mixing.
as §2, with “a 100 mL volumetric flask” for “scintillation vial, the vial was capped”, “agent.” for “agent and was stored under the same conditions as the other samples, 24 hours exposed to air at room temperature and not protected from light.”, “hours,” for “hours, the contents of each vial were transferred to a 100 mL volumetric flask and”
as §3, with “trace.” for “trace. The control sample in Table 8 contained no agent, was stored at 5° C. and protected from light.”

[5] = API stock in argon-sparged methanol

| Compound | weight percentage of the component, 1 months [1] | weight percentage of the component, 2 months [1] | weight percentage of the component, 3 months [1] | weight percentage of the component, 6 months [1] | weight percentage of the component, 9 months [1] | weight percentage of the component, 12 months [1] | weight percentage of the component, 18 months [1] | weight percentage of the component, 24 months [1] | weight percentage of the component, Initial [1] | % weight in formulation after 1 month [2] | % weight in formulation after 3 months [2] | % weight in formulation after 6 months [2] | % weight in formulation after 9 months [2] | Initial (% weight of formulation) [2] | (% area sulfoxide for each agent/% area sulfoxide in Blank) [3, 5] | % area sulfoxide relative to % area Control [3] | Average % area sulfoxide for 3 runs per agent [3] | % area sulfoxide relative to % area Control [4] | (% area sulfoxide for each agent/% area sulfoxide in Blank) [4] | Average % area sulfoxide for 3 runs per agent [4] | further results |
| --- | --- | --- | --- | --- | --- | --- | --- | --- | --- | --- | --- | --- | --- | --- | --- | --- | --- | --- | --- | --- | --- |
| CC(C)=CCC/C(C)=C/CC/C(C)=C/CSC[C@H](NC(=O)CCC(=O)O)C(=O)O [4-(((R)-1-carboxy-2-(((2E,6E)-3,7,11-trimethyldodeca-2,6,10-trien-1-yl)thio)ethyl)amino)-4-oxobutanoic acid] | 3.01 weight percentage | 3.00 weight percentage | 3.10 weight percentage | 3.04 weight percentage | 3.03 weight percentage | 3.06 weight percentage | 3.10 weight percentage | 3.05 weight percentage | 3.09 weight percentage | 2.97% | 3.13% | 2.92% | 2.87% | 3.09% | – | – | – | – | – | – | – |
| O=C1O[C@H]([C@@H](O)CO)C(O)=C1O [Ascorbic acid] | – | – | – | – | – | – | – | – | – | – | – | – | – | – | 2.39 | 1.812 | 2.771% | – | – | – | – |
| Cc1cc(C(C)(C)C)c(O)c(C(C)(C)C)c1 [Butylated hydroxytoluene (BHT), Butylated hydroxytoluene] | – | – | – | – | – | – | – | – | – | – | – | – | – | – | 1.02 | 0.227 | 1.186% | 0.115 | 0.97 | 1.092% | – |
| O=C(CO)[C@@H](O)[C@H](O)[C@H](O)CO [Fructose] | – | – | – | – | – | – | – | – | – | – | – | – | – | – | – | – | – | 0.146 | About 1 | 1.123% | – |
| COC(=O)c1ccc(O)cc1 [Methylparaben] | 0.17 weight percentage | 0.17 weight percentage | 0.17 weight percentage | 0.18 weight percentage | 0.17 weight percentage | 0.17 weight percentage | 0.17 weight percentage | 0.15 weight percentage | 0.17 weight percentage | 0.17% | 0.17% | 0.17% | 0.16% | 0.17% | – | – | – | – | – | – | – |
| O=S([O-])([O-])=S.[Na+].[Na+] [Sodium thiosulfate] | – | – | – | – | – | – | – | – | – | – | – | – | – | – | – | 0.158 | 1.117% | 0.055 | 0.92 | 1.032% | (% area sulfoxide for each agent/% area sulfoxide in Blank) [3]: 0.96 |
| O=S([O-])CO.[Na+] [sodium hydroxymethylsulfinate] | – | – | – | – | – | – | – | – | – | – | – | – | – | – | – | – | – | 0.571 | 1.37 | 1.548% | – |

More lines, main results first:

| weight percentage of the component, 1 months [1] | weight percentage of the component, 2 months [1] | weight percentage of the component, 3 months [1] | weight percentage of the component, 6 months [1] | weight percentage of the component, 9 months [1] | weight percentage of the component, 12 months [1] | weight percentage of the component, 18 months [1] | weight percentage of the component, 24 months [1] | weight percentage of the component, Initial [1] | % weight in formulation after 1 month [2] | % weight in formulation after 3 months [2] | % weight in formulation after 6 months [2] | % weight in formulation after 9 months [2] | Initial (% weight of formulation) [2] | (% area sulfoxide for each agent/% area sulfoxide in Blank) [3, 5] | % area sulfoxide relative to % area Control [3] | Average % area sulfoxide for 3 runs per agent [3] | Compound | % area sulfoxide relative to % area Control [4] | (% area sulfoxide for each agent/% area sulfoxide in Blank) [4] | Average % area sulfoxide for 3 runs per agent [4] | further results |
| --- | --- | --- | --- | --- | --- | --- | --- | --- | --- | --- | --- | --- | --- | --- | --- | --- | --- | --- | --- | --- | --- |
| 0.032 weight percentage | 0.032 weight percentage | 0.033 weight percentage | 0.032 weight percentage | 0.033 weight percentage | 0.032 weight percentage | 0.033 weight percentage | 0.030 weight percentage | 0.034 weight percentage | 0.033% | 0.034% | 0.032% | 0.033% | 0.034% | – | – | – | CCCOC(=O)c1ccc(O)cc1 [Propylparaben] | – | – | – | – |
| 0.039 weight percentage | 0.076 weight percentage | 0.112 weight percentage | 0.048 weight percentage | 0.049 weight percentage | 0.050 weight percentage | 0.052 weight percentage | 0.044 weight percentage | 0.037 weight percentage | 0.031% | 0.113% | 0.053% | 0.134% | 0.037% | – | – | – | CC(C)=CCC/C(C)=C/CC/C(C)=C/C[S+]([O-])C[C@H](NC(=O)CCC(=O)O)C(=O)O (stereo partly drawn) [Sulfoxide of 4-(((R)-1-carboxy-2-(((2E,6E)-3,7,11-trimethyldodeca-2,6,10-trien-1-yl)thio)ethyl)amino)-4-oxobutanoic acid] | – | – | – | – |
| – | – | – | – | – | – | – | – | – | – | – | – | – | – | 7.38 | 7.587 | 8.546% | CC(C)(C)c1cc(O)ccc1O [Tert-butylhydroquinone (TBHQ), Tert-butylhydroquinone] | – | – | – | – |
| – | – | – | – | – | – | – | – | – | – | – | – | – | – | 1.01 | 0.208 | 1.167% | CC(=O)Oc1c(C)c(C)c2c(c1C)CCC(C)(CCC[C@H](C)CCC[C@H](C)CCCC(C)C)O2 (some centres unmarked) [Vitamin E acetate] | – | – | – | – |
